We go through twelve compounds from US10329310B2, “Arginase inhibitors and their therapeutic applications” (ONCOARENDI THERAPEUTICS S.A., priority 2014, dated 2019).

Structures can show the parent of a compound that is named as a salt.

The test addresses recombinant human arginases 1 and 2. In words: Human Arginase Activity Assay (urea measurement, colorimetric). The format is biochemical. Conditions: 37° C., 60 min, isoform not given, read-out: Activity Class (IC50). The procedure: Human Arginase Activity Assay
The assay was run in the 96-well plate format, each reaction in the total volume of 100 ul. The assay is based on urea measurement, which is a product of L-arginine enzymatic degradation. (Baggio et al. J. Pharmacol. Exp. Ther. 1999, 290, 1409-1416). The color product is developed by adding a mixture of reagent A (10 mM o-phthaldialdehyde and 0.4% polyoxyethylene (23) lauryl ether (w/v) in 1.8 M sulfuric acid) and reagent B (1.3 mM primaquine diphosphate, 0.4% polyoxyethylene (23) lauryl ether (w/v), and 130 mM boric acid in 3.6 M sulfuric acid) in equal proportions. The absorbance for each well was measured at 530 nm and was referred to the concentration curve determined using urea as a standard.
Briefly, to each well of a 96-well microtiter plate 40 μL of enzyme, 50 μL of the test compound solution, and 10 μL of enzyme substrate solution (L-arginine+manganese chloride) was added. For positive control, only the enzyme and substrate was added, the negative controls contained only manganese chloride. After incubating the microtiter plate at 37° C. for 60 min, 150 μL of a urea reagent was added to each well to stop the reaction. After quenching the reaction mixture, the plate was left for 20 min at room temperature in order to allow color development. Absorbance was measured with Envision® Reader (Perkin-Elmer) (λ=530 nm).
The IC50 values were calculated using GraphPad Prism and divided into the following classes: […]
In general, IC50 refers to the concentration needed to halve the response being measured. On to `CNC(CCCCB(O)O)(CNS(N)(=O)=O)C(=O)O` (stereo not drawn) [Example 8, 6-Borono-2-(methylamino)-2-((sulfamoylamino)methyl)hexanoic acid hydrochloride], for which the IC50 lay in the range of 0.1 to 1 µM.
The result for `NC(CCCCB(O)O)(C(=O)O)C1CCN(S(N)(=O)=O)CC1` (stereo not drawn) [Example 14, 2-Amino-6-borono-2-(1-sulfamoylpiperidin-4-yl)hexanoic acid hydrochloride] reads 1 to 10 µM; that for `CN(C)S(=O)(=O)N1CCC(C(N)(CCCCB(O)O)C(=O)O)CC1` (stereo not drawn) [Example 15, 2-Amino-6-borono-2-(1-(N,N-dimethylsulfamoyl)piperidin-4-yl)hexanoic acid hydrochloride], 10 to 100 µM.
The result for `NC(CCCCB(O)O)(C(=O)O)C1CCN(S(=O)(=O)NCc2ccc(C(F)(F)F)cc2)CC1` (stereo not drawn) [Example 16, 2-Amino-6-borono-2-(1-(N-(4-(trifluoromethyl)benzyl)sulfamoyl)piperidin-4-yl)hexanoic acid hydrochloride] reads 1 to 10 µM; that for `NC(=O)NCC(N)(CCCCB(O)O)C(=O)O` (stereo not drawn) [Example 3, 2-Amino-6-borono-2-(ureidomethyl)hexanoic acid hydrochloride], 10 to 100 µM; that for `CN(C)S(=O)(=O)NCC(N)(CCCCB(O)O)C(=O)O` (stereo not drawn) [Example 4, 2-Amino-6-borono-2-(((N,N-dimethylsulfamoyl)amino)methyl)hexanoic acid hydrochloride], 0.1 to 1 µM.
Then `NC(CCCCB(O)O)(CCNS(N)(=O)=O)C(=O)O` (stereo not drawn) [Example 12, hydrochloride], with 1 to 10 µM; and `CNS(=O)(=O)NCC(N)(CCCCB(O)O)C(=O)O` (stereo not drawn) [Example 6, hydrochloride], with 0.1 to 1 µM.
Take `NC(CCCCB(O)O)(CNS(=O)(=O)NCc1ccccc1)C(=O)O` (stereo not drawn) [Example 5, hydrochloride]: the IC50 was in the range of 1 to 10 µM.
With `CNC(CCCCB(O)O)(CNC(=N)N)C(=O)O` (stereo not drawn) [Example 9, 6-Borono-2-(guanidinomethyl)-2-(methylamino)hexanoic acid dihydrochloride], the concentration for half-maximal inhibition (IC50) was 0.001 to 0.1 µM.
The result for `CNC(=N)NCC(N)(CCCCB(O)O)C(=O)O` (stereo not drawn) [Example 7, 2-Amino-6-borono-2-((3-methylguanidino)methyl)hexanoic acid hydrochloride] reads 0.1 to 1 µM; that for `NC(CCCCB(O)O)(CCS(N)(=O)=O)C(=O)O` (stereo not drawn) [Example 10, 2-Amino-6-borono-2-(2-sulfamoylethyl)hexanoic acid hydrochloride], 1 to 10 µM.
